Reference: the NIST ThermoML archive (doi:10.1021/je400968v)
Numbers after ± are expanded uncertainties.

Assay: mn = molality of the nth substance listed, in mol/kg
Conditions: 101 kPa, Liquid; for viscosity: Capillary tube (Ostwald / Ubbelohde) method; for mass density: Vibrating tube method

Cc1c(N)cccc1N [2,6-diaminotoluene] + CCCO
Conditions	mass density, 293.15 K [kg/m3]	mass density, 303.15 K [kg/m3]	mass density, 313.15 K [kg/m3]	mass density, 323.15 K [kg/m3]	mass density, 333.15 K [kg/m3]	viscosity, 293.15 K [mPa·s]	viscosity, 303.15 K [mPa·s]	viscosity, 313.15 K [mPa·s]	viscosity, 323.15 K [mPa·s]	viscosity, 333.15 K [mPa·s]
m1 = 0.0501	805.5 ± 0.17	797.18 ± 0.17	789 ± 0.17	780.63 ± 0.17	772.03 ± 0.18	2.19 ± 0.014	1.709 ± 0.012	1.348 ± 0.009	1.074 ± 0.008	0.864 ± 0.006
m1 = 0.0997	807.1 ± 0.17	798.78 ± 0.17	790.58 ± 0.17	782.21 ± 0.17	773.6 ± 0.18	2.209 ± 0.015	1.72 ± 0.012	1.355 ± 0.009	1.079 ± 0.008	0.869 ± 0.006
m1 = 0.1498	808.7 ± 0.17	800.36 ± 0.17	792.16 ± 0.17	783.77 ± 0.17	775.16 ± 0.18	2.226 ± 0.015	1.734 ± 0.012	1.365 ± 0.009	1.086 ± 0.008	0.874 ± 0.006
m1 = 0.1995	810.26 ± 0.17	801.92 ± 0.17	793.7 ± 0.17	785.32 ± 0.17	776.68 ± 0.18	2.245 ± 0.015	1.744 ± 0.012	1.372 ± 0.009	1.092 ± 0.008	0.878 ± 0.006
m1 = 0.2499	811.81 ± 0.17	803.46 ± 0.17	795.23 ± 0.17	786.83 ± 0.17	778.21 ± 0.18	2.268 ± 0.015	1.759 ± 0.012	1.383 ± 0.01	1.099 ± 0.008	0.883 ± 0.006
m1 = 0.2994	813.34 ± 0.17	804.95 ± 0.17	796.73 ± 0.17	788.33 ± 0.17	779.69 ± 0.18	2.282 ± 0.015	1.77 ± 0.012	1.391 ± 0.01	1.106 ± 0.008	0.888 ± 0.006
m1 = 0.3496	814.83 ± 0.17	806.45 ± 0.17	798.21 ± 0.17	789.79 ± 0.17	781.15 ± 0.17	2.305 ± 0.015	1.789 ± 0.012	1.401 ± 0.01	1.112 ± 0.008	0.893 ± 0.006

Cc1c(N)cccc1N [2,6-diaminotoluene] + CCO
Conditions	mass density, 293.15 K [kg/m3]	mass density, 303.15 K [kg/m3]	mass density, 313.15 K [kg/m3]	mass density, 323.15 K [kg/m3]	mass density, 333.15 K [kg/m3]	viscosity, 293.15 K [mPa·s]	viscosity, 303.15 K [mPa·s]	viscosity, 313.15 K [mPa·s]	viscosity, 323.15 K [mPa·s]	viscosity, 333.15 K [mPa·s]
m1 = 0.0503	791.34 ± 0.16	782.75 ± 0.16	773.98 ± 0.16	765.05 ± 0.17	755.93 ± 0.17	1.193 ± 0.008	0.983 ± 0.007	0.814 ± 0.006	0.68 ± 0.005	0.569 ± 0.004
m1 = 0.1002	793.1 ± 0.16	784.49 ± 0.16	775.72 ± 0.16	766.78 ± 0.17	757.66 ± 0.17	1.206 ± 0.008	0.991 ± 0.007	0.823 ± 0.006	0.686 ± 0.005	0.573 ± 0.004
m1 = 0.1497	794.82 ± 0.16	786.2 ± 0.16	777.43 ± 0.16	768.49 ± 0.17	759.36 ± 0.17	1.221 ± 0.008	1.002 ± 0.007	0.829 ± 0.006	0.69 ± 0.005	0.578 ± 0.004
m1 = 0.1996	796.54 ± 0.16	787.9 ± 0.16	779.12 ± 0.16	770.18 ± 0.17	761.05 ± 0.17	1.233 ± 0.008	1.011 ± 0.007	0.835 ± 0.006	0.696 ± 0.005	0.582 ± 0.004
m1 = 0.2496	798.23 ± 0.16	789.59 ± 0.16	780.81 ± 0.16	771.86 ± 0.17	762.72 ± 0.17	1.245 ± 0.008	1.021 ± 0.007	0.843 ± 0.006	0.7 ± 0.005	0.586 ± 0.004
m1 = 0.2997	799.92 ± 0.16	791.26 ± 0.16	782.49 ± 0.16	773.53 ± 0.16	764.4 ± 0.17	1.258 ± 0.008	1.03 ± 0.007	0.849 ± 0.006	0.707 ± 0.005	0.591 ± 0.004
m1 = 0.3496	801.55 ± 0.16	792.9 ± 0.16	784.13 ± 0.16	775.18 ± 0.16	766.04 ± 0.17	1.272 ± 0.008	1.04 ± 0.007	0.857 ± 0.006	0.711 ± 0.005	0.595 ± 0.004
m1 = 0.3995	803.2 ± 0.16	794.53 ± 0.16	785.77 ± 0.16	776.81 ± 0.16	767.67 ± 0.17	1.286 ± 0.008	1.05 ± 0.007	0.864 ± 0.006	0.718 ± 0.005	0.6 ± 0.004
m1 = 0.4497	804.84 ± 0.16	796.16 ± 0.16	787.4 ± 0.16	778.43 ± 0.16	769.3 ± 0.17	1.3 ± 0.008	1.061 ± 0.007	0.872 ± 0.006	0.723 ± 0.005	0.604 ± 0.004
m1 = 0.4995	806.45 ± 0.16	797.75 ± 0.16	789 ± 0.16	780.03 ± 0.16	770.89 ± 0.17	1.313 ± 0.008	1.07 ± 0.007	0.879 ± 0.006	0.731 ± 0.005	0.609 ± 0.004
m1 = 0.5495	808.02 ± 0.16	799.33 ± 0.16	790.56 ± 0.16	781.61 ± 0.16	772.46 ± 0.17	1.328 ± 0.009	1.08 ± 0.007	0.888 ± 0.006	0.736 ± 0.005	0.613 ± 0.004
m1 = 0.5995	809.61 ± 0.16	800.9 ± 0.16	792.14 ± 0.16	783.18 ± 0.16	774.03 ± 0.17	1.342 ± 0.009	1.09 ± 0.007	0.895 ± 0.006	0.742 ± 0.005	0.618 ± 0.004
m1 = 0.6492	811.1 ± 0.16	802.44 ± 0.16	793.67 ± 0.16	784.72 ± 0.16	775.55 ± 0.16	1.357 ± 0.009	1.102 ± 0.007	0.903 ± 0.006	0.746 ± 0.005	0.622 ± 0.004
m1 = 0.6984	812.63 ± 0.16	803.98 ± 0.16	795.19 ± 0.16	786.23 ± 0.16	777.07 ± 0.16	1.372 ± 0.009	1.112 ± 0.007	0.91 ± 0.006	0.753 ± 0.005	0.626 ± 0.004
m1 = 0.7488	814.15 ± 0.15	805.51 ± 0.16	796.73 ± 0.16	787.77 ± 0.16	778.61 ± 0.16	1.389 ± 0.009	1.124 ± 0.007	0.919 ± 0.006	0.758 ± 0.005	0.631 ± 0.005
m1 = 0.7991	815.68 ± 0.15	807.02 ± 0.16	798.25 ± 0.16	789.3 ± 0.16	780.13 ± 0.16	1.408 ± 0.009	1.134 ± 0.008	0.926 ± 0.006	0.762 ± 0.005	0.636 ± 0.005
